One experiment addresses T1, Human δ-opioid (DOP) (Homo sapiens, UniProt P41143).
T1 construct: purchased Perkin Elmer Biosignal
Nature of the experiment: Radioligand binding, human δ-opioid (DOP) membranes, FlashPlate, [3H]-Bremazocine. To be noted: compound at 10 μM; [3H]-Bremazocine, FlashPlate. The method in brief:
(§1)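 Cloned human receptor membranes were coated onto FlashPlate wells and incubated with radioligand and compound (added from a 0.5 mM DMSO daughter plate) for 1 hour at room temperature in the dark. Scintillation counting gave percent inhibition, with DMSO defining total and reference ligand defining non-specific binding.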

The target of another experiment is T2, Human κ-Opioid (KOP) (Homo sapiens, UniProt P41145).
T2 construct: purchased Perkin Elmer Biosignal
Nature of the experiment: Radioligand binding, human κ-opioid (KOP) membranes, filtration, [3H]-Diprenorphine. To be noted: compound at 10 μM; [3H]-Diprenorphine, filtration. The essentials:
(§2)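 Percent inhibition of radioligand binding measured on recombinant human membranes: NK1 with [125I]-Substance P, KOP with [3H]-Diprenorphine. Incubation 1 h at room temperature, then harvest onto 0.3% PEI-soaked filters, cold Tris-HCl pH 7.4 washes and scintillation counting; non-specific binding from reference ligand wells.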

The target of another experiment is T3, Human Melanocortin (MC3) (Homo sapiens, UniProt P41968).
T3 construct: purchased Perkin Elmer Biosignal
Put plainly: Radioligand binding, human melanocortin MC3 membranes, FlashPlate, [125I]-NDP-αMSH. As to conditions: compound at 10 μM; [125I]-NDP-αMSH, FlashPlate. The essentials: as §1

The target in the next experiment is T4, Human Melanocortin (MC4) (Homo sapiens, UniProt P32245).
T4 construct: purchased Perkin Elmer Biosignal
Put plainly: Radioligand binding, human melanocortin MC4 membranes, FlashPlate, [125I]-NDP-αMSH. As to conditions: compound at 10 μM; [125I]-NDP-αMSH, FlashPlate. The method in brief:
as §1

A further experiment addresses T5, Human melanocortin (MC5) (Homo sapiens, UniProt P33032).
T5 construct: purchased Perkin Elmer Biosignal
Put plainly: Radioligand binding, human melanocortin MC5 membranes, FlashPlate, [125I]-NDP-αMSH. As to conditions: compound at 10 μM; [125I]-NDP-αMSH, FlashPlate. The method in brief: as §1

Experiment [1] deals with T6, Human melanin-concentrating hormone (MCH1) (Homo sapiens, UniProt Q99705).
T6 construct: purchased Perkin Elmer Biosignal
Put plainly: Radioligand binding, human melanin-concentrating hormone MCH1 membranes, FlashPlate, [125I]-S36057. As to conditions: compound at 10 μM; [125I]-S36057, FlashPlate. The essentials:
as §1

The target in the next experiment is T7, Human μ-opioid (MOP) (Homo sapiens, UniProt P35372).
T7 construct: purchased Perkin Elmer Biosignal
Nature of the experiment: Radioligand binding, human μ-opioid (MOP) membranes, FlashPlate, [3H]-Naloxone. As to conditions: compound at 10 μM; [3H]-Naloxone, FlashPlate. The method in brief: as §1

The target in a further experiment is T8, Human neurokinin (NK1) (Homo sapiens, UniProt P25103).
T8 construct: purchased Perkin Elmer Biosignal
Put plainly: Radioligand binding, human neurokinin NK1 membranes, filtration, [125I]-Substance P. To be noted: compound at 10 μM; [125I]-Substance P, filtration. The method in brief:
as §2

Experiment [2] deals with T9, Human neuropeptide Y (NPY-Y1) (Homo sapiens, UniProt P25929).
T9 construct: purchased Perkin Elmer Biosignal
T9 sequence (P25929 1-384): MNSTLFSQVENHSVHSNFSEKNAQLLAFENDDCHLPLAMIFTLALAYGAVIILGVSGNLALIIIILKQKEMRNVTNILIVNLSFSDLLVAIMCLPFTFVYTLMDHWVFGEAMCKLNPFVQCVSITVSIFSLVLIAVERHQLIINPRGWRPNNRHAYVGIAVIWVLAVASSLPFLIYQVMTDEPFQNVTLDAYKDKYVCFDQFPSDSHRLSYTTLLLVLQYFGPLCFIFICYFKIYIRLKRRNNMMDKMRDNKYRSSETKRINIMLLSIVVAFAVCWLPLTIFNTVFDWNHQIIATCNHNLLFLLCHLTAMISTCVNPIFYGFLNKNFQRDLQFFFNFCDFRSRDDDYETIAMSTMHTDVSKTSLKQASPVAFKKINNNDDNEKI
Nature of the experiment: Radioligand binding, human neuropeptide Y NPY-Y1 membranes, FlashPlate, [125I]-PYY. To be noted: compound at 10 μM; [125I]-PYY, FlashPlate. The essentials: as §1

A further experiment has as its target T10, Human opioid (ORL1) (Homo sapiens, UniProt P41146).
T10 construct: purchased Perkin Elmer Biosignal
Put plainly: Radioligand binding, human opioid ORL1 membranes, FlashPlate, [125I]-Nociceptin. To be noted: compound at 10 μM; [125I]-Nociceptin, FlashPlate. The method in brief:
as §1

For a further experiment, the target named is T11, Mouse urotensin (mUR2) (Mus musculus, UniProt Q8VIH9).
T11 construct: purchased Perkin Elmer Biosignal
T11 sequence (Q8VIH9 1-385): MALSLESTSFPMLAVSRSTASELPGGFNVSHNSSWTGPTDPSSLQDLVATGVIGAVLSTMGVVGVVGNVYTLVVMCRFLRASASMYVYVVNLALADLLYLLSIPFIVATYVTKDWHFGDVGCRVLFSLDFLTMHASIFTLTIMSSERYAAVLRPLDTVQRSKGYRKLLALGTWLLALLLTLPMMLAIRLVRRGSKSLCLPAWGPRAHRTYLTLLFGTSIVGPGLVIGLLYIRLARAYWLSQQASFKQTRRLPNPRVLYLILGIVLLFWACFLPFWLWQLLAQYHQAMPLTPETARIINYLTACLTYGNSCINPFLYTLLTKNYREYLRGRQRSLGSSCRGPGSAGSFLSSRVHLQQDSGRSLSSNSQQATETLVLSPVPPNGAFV
Nature of the experiment: Radioligand binding, mouse urotensin mUR2 membranes, FlashPlate, [125I]-Urotensin II. As to conditions: compound at 10 μM; [125I]-Urotensin II, FlashPlate. The essentials:
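Cloned mouse urotensin (mUR2) receptor membranes from Perkin Elmer Biosignal were immobilized in FlashPlate microplates using a proprietary coating. Each well got 19.5 μl buffer, then 0.5 μl of DMSO, reference ligand, or compound. Adding 5 μl of [125I]-Urotensin II, diluted to 5× final concentration in binding buffer, started binding. Plates were sealed with TopSeal-A and incubated 1 hour at room temperature in the dark. Wells were counted for 30 seconds each on a TopCount after a 60-second delay, and percentage inhibition was calculated.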

T5 sequence (P33032 whole entry): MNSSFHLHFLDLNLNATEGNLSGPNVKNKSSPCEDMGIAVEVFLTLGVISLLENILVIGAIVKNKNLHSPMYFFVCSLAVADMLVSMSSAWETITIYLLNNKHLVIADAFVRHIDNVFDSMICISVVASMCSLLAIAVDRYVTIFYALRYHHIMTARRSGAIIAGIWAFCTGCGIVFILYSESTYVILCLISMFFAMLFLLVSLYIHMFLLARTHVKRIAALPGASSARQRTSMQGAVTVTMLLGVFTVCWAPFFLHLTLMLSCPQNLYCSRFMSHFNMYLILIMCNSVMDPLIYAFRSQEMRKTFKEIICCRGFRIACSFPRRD
T4 sequence (P32245 whole entry): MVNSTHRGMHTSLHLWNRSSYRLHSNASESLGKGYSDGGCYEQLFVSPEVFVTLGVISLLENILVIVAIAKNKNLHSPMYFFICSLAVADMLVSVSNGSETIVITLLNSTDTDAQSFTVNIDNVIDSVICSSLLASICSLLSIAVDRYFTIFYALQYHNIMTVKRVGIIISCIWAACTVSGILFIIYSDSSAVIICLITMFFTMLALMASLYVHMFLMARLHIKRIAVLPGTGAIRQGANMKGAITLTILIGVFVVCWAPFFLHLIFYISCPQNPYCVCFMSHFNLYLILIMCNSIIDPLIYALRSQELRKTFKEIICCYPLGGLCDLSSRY
T2 sequence (P41145 whole entry): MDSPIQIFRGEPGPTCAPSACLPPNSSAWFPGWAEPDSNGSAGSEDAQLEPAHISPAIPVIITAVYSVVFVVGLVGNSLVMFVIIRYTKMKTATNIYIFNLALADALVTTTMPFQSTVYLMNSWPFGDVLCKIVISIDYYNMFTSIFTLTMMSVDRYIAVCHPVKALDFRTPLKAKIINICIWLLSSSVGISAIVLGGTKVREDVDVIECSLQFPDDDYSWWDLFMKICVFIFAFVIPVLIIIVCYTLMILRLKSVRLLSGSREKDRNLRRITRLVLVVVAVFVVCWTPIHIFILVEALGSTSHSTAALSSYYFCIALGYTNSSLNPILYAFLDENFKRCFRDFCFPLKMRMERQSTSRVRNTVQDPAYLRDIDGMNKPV
T1 sequence (P41143 whole entry): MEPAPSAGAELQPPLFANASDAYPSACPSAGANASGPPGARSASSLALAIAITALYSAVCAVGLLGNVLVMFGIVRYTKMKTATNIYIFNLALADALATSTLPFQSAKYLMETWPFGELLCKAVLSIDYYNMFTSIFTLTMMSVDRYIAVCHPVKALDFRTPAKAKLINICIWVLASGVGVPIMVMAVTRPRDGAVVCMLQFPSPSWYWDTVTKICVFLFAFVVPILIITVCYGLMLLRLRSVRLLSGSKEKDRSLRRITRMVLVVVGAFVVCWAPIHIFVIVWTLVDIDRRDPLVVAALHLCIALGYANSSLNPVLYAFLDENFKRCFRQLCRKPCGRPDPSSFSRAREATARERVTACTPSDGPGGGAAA
T10 sequence (P41146 whole entry): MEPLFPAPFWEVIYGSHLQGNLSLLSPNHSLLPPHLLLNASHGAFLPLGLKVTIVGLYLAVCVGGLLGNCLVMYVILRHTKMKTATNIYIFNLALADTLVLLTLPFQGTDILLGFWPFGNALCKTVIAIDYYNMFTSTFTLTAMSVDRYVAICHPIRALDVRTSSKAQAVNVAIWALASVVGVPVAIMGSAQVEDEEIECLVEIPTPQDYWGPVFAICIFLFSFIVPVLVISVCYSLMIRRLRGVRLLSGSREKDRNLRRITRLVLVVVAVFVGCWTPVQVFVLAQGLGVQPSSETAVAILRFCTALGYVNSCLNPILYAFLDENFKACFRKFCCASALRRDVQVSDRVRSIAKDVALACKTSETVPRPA
T7 sequence (P35372 whole entry): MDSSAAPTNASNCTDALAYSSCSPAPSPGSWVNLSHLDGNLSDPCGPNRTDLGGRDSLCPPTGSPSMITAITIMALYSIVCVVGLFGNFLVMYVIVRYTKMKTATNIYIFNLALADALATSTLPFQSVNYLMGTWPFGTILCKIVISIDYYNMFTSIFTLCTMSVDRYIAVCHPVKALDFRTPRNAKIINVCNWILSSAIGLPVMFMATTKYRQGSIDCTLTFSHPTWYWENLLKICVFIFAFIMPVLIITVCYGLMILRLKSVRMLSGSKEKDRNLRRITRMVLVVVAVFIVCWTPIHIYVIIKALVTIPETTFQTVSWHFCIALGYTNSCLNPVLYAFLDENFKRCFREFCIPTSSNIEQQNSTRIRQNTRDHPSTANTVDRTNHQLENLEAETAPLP
T8 sequence (P25103 whole entry): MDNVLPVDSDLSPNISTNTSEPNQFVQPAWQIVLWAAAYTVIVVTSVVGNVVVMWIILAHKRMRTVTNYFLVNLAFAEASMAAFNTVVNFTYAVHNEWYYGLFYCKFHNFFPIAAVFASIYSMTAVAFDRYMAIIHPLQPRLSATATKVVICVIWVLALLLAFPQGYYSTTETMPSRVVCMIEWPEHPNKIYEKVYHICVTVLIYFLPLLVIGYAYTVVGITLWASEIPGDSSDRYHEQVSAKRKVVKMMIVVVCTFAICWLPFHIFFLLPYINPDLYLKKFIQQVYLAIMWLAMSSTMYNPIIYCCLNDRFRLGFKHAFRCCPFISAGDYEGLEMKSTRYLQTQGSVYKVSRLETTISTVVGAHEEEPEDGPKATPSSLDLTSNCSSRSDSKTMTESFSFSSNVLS
T3 sequence (P41968 whole entry): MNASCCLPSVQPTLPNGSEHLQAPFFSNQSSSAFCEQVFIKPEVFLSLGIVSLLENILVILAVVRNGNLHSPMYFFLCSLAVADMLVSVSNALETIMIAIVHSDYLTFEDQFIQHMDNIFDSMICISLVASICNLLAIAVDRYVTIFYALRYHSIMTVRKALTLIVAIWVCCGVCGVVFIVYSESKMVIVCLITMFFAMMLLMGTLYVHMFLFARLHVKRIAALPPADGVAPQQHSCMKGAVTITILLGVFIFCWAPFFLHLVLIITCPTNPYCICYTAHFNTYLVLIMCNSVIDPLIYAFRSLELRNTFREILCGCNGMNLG
T6 sequence (Q99705 whole entry): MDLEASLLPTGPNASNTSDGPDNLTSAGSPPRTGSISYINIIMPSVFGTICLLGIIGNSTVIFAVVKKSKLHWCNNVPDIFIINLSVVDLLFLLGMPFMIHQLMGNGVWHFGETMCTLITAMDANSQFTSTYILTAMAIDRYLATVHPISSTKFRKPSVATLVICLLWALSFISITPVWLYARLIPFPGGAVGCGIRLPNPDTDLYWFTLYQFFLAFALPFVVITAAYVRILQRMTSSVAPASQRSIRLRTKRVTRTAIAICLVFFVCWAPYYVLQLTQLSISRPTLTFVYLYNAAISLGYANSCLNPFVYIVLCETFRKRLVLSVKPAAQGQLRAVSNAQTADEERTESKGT

Regarding `COCC1OC(OCCc2ccccc2)C(NC(=O)CN)C(OCc2ccccc2)C1O` (stereo not drawn) [compound 214], on Human δ-opioid (DOP), the “A1: inhibition of radioligand binding” value is “− (“−” indicates less than 50% inhibition at 10 μM)”. Besides, on Human κ-Opioid (KOP), the “A2: inhibition of radioligand binding” value is “− (“−” indicates less than 50% inhibition at 10 μM)”. The “A3: inhibition of radioligand binding” value at Human Melanocortin (MC3) is listed as “− (“−” indicates less than 50% inhibition at 10 μM)”. Further, on Human Melanocortin (MC4), the “A4: inhibition of radioligand binding” value is “− (“−” indicates less than 50% inhibition at 10 μM)”. Moreover, the “A5: inhibition of radioligand binding” value on Human melanocortin (MC5) is listed as “− (“−” indicates less than 50% inhibition at 10 μM)”. Also, the “A6: inhibition of radioligand binding” value in experiment [1] is “− (“−” indicates less than 50% inhibition at 10 μM)”. Further, the “A7: inhibition of radioligand binding” value at Human μ-opioid (MOP) is “− (“−” indicates less than 50% inhibition at 10 μM)”. Moreover, the “A8: inhibition of radioligand binding” value at Human neurokinin (NK1) is listed as “+ (“+” indicates greater than 50% inhibition at 10 μM)”. Besides, the “A9: inhibition of radioligand binding” value in experiment [2] was “− (“−” indicates less than 50% inhibition at 10 μM)”. The “A10: inhibition of radioligand binding” value at Human opioid (ORL1) was “− (“−” indicates less than 50% inhibition at 10 μM)”. Further, the “A11: inhibition of radioligand binding” value at Mouse urotensin (mUR2) was “− (“−” indicates less than 50% inhibition at 10 μM)”.
As to `COCC1OC(OCCc2ccccc2)C(NC(=O)CNC(=N)N)C(OCc2ccccc2)C1O` (stereo not drawn) [compound 215], the “A1: inhibition of radioligand binding” value on Human δ-opioid (DOP) is on record as “− (“−” indicates less than 50% inhibition at 10 μM)”. Besides, the “A2: inhibition of radioligand binding” value at Human κ-Opioid (KOP) is listed as “− (“−” indicates less than 50% inhibition at 10 μM)”. Further, at Human Melanocortin (MC3), the “A3: inhibition of radioligand binding” value was “− (“−” indicates less than 50% inhibition at 10 μM)”. For the same compound, the “A4: inhibition of radioligand binding” value on Human Melanocortin (MC4) is recorded as “− (“−” indicates less than 50% inhibition at 10 μM)”. Further, at Human melanocortin (MC5), the “A5: inhibition of radioligand binding” value was “+ (“+” indicates greater than 50% inhibition at 10 μM)”. Moreover, the “A6: inhibition of radioligand binding” value in experiment [1] was “− (“−” indicates less than 50% inhibition at 10 μM)”. For the same compound, the “A7: inhibition of radioligand binding” value at Human μ-opioid (MOP) was “− (“−” indicates less than 50% inhibition at 10 μM)”. The “A8: inhibition of radioligand binding” value on Human neurokinin (NK1) was “+ (“+” indicates greater than 50% inhibition at 10 μM)”. The “A9: inhibition of radioligand binding” value in [2] was “− (“−” indicates less than 50% inhibition at 10 μM)”. Also, on Human opioid (ORL1), the “A10: inhibition of radioligand binding” value is “− (“−” indicates less than 50% inhibition at 10 μM)”. The “A11: inhibition of radioligand binding” value on Mouse urotensin (mUR2) is “− (“−” indicates less than 50% inhibition at 10 μM)”.
For `COCC1OC(OCCc2ccccc2)C(NC(=O)CCN)C(OCc2ccccc2)C1O` (stereo not drawn) [compound 216], the “A1: inhibition of radioligand binding” value at Human δ-opioid (DOP) was “− (“−” indicates less than 50% inhibition at 10 μM)”. Moreover, at Human κ-Opioid (KOP), the “A2: inhibition of radioligand binding” value is “− (“−” indicates less than 50% inhibition at 10 μM)”. Moreover, at Human Melanocortin (MC3), the “A3: inhibition of radioligand binding” value was “− (“−” indicates less than 50% inhibition at 10 μM)”. Moreover, the “A4: inhibition of radioligand binding” value at Human Melanocortin (MC4) is given as “− (“−” indicates less than 50% inhibition at 10 μM)”. Moreover, at Human melanocortin (MC5), the “A5: inhibition of radioligand binding” value is listed as “− (“−” indicates less than 50% inhibition at 10 μM)”. For the same compound, the “A6: inhibition of radioligand binding” value in experiment [1] is “− (“−” indicates less than 50% inhibition at 10 μM)”. Also, the “A7: inhibition of radioligand binding” value on Human μ-opioid (MOP) is reported as “− (“−” indicates less than 50% inhibition at 10 μM)”. Also, the “A8: inhibition of radioligand binding” value at Human neurokinin (NK1) is “+ (“+” indicates greater than 50% inhibition at 10 μM)”. The “A9: inhibition of radioligand binding” value in experiment [2] is reported as “− (“−” indicates less than 50% inhibition at 10 μM)”. In addition, the “A10: inhibition of radioligand binding” value at Human opioid (ORL1) is “− (“−” indicates less than 50% inhibition at 10 μM)”. Besides, at Mouse urotensin (mUR2), the “A11: inhibition of radioligand binding” value was “− (“−” indicates less than 50% inhibition at 10 μM)”.

These data come from patent publication US20080009418A1, “Selective Inhibitors” (Alchemia LTD., priority 2004, published 2008).
